Activity calls are given as the source filed them.
Key:
[1] = molecular target: T1, Short transient receptor potential channel 4 (Mus musculus, UniProt Q9QUQ5); test: calcium entry via TRPC4 opening agents – cell-based, HEK293 TRPC4/mu-opioid, Fluo-4 calcium, dose response (AID 434937); assay type: functional
T1 sequence (Q9QUQ5 whole entry): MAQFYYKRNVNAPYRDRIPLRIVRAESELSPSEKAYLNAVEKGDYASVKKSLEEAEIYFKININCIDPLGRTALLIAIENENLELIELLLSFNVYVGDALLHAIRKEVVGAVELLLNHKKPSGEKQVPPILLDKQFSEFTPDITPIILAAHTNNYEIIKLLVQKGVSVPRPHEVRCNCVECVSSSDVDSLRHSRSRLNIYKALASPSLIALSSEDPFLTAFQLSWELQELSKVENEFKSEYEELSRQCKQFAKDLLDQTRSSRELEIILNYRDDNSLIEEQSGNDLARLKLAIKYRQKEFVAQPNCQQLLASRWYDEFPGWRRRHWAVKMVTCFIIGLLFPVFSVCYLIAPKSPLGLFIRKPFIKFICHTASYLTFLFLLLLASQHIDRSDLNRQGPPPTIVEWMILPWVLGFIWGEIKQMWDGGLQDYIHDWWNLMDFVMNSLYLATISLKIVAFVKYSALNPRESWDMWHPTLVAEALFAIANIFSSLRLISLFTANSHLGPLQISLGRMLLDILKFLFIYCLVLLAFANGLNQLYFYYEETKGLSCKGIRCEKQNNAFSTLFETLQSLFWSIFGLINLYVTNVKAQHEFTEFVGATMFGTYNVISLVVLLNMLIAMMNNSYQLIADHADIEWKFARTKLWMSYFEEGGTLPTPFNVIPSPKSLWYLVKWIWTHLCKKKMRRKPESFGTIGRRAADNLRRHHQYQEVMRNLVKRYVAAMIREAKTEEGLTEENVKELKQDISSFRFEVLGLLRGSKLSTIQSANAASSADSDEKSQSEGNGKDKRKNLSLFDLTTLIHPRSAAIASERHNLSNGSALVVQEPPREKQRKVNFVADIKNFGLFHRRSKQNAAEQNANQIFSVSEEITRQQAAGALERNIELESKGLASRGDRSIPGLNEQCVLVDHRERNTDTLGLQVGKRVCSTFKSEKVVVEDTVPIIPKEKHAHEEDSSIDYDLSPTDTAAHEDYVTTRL

[2] = molecular target: DNA dC->dU-editing enzyme APOBEC-3G (Homo sapiens, UniProt Q9HC16); test: inhibition of APOBEC3G ssDNA deamination – biochemical, fluorescence, single-stranded DNA substrate, SAR follow-up (AID 602136); assay type: functional; settings: read-out: IC50_Mean
Sequence of DNA dC->dU-editing enzyme APOBEC-3G (Q9HC16 whole entry): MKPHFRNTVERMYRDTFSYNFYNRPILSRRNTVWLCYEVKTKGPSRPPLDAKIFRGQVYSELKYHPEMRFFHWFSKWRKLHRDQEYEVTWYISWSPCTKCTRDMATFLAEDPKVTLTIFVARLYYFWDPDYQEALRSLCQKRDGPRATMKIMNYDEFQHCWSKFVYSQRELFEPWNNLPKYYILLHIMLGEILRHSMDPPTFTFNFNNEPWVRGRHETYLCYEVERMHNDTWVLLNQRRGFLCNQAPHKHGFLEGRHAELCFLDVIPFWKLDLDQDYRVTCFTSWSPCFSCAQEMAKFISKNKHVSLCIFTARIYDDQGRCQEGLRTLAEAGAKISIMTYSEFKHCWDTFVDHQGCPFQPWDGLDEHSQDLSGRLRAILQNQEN

[3] = molecular target: DNA dC->dU-editing enzyme APOBEC-3A (Homo sapiens, UniProt P31941); test: SAR analysis of small molecule inhibitors of APOBEC3A DNA Deaminase via a fluorescence-based single-stranded DNA deaminase assay.; assay type: functional; settings: read-out: IC50_Mean
Sequence of DNA dC->dU-editing enzyme APOBEC-3A (P31941 whole entry): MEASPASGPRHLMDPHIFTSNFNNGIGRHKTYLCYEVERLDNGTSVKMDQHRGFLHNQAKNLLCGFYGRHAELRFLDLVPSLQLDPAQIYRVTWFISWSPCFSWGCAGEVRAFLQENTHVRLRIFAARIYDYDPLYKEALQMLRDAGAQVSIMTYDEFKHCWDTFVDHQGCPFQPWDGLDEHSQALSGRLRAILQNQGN

[4] = molecular target: Protein disulfide-isomerase (Homo sapiens, UniProt P07237); test: inhibition of PDI-driven insulin aggregation – biochemical, turbidity, absorbance, cherry-picked samples, dose response (AID 602350); assay type: functional
Sequence of Protein disulfide-isomerase (P07237 whole entry): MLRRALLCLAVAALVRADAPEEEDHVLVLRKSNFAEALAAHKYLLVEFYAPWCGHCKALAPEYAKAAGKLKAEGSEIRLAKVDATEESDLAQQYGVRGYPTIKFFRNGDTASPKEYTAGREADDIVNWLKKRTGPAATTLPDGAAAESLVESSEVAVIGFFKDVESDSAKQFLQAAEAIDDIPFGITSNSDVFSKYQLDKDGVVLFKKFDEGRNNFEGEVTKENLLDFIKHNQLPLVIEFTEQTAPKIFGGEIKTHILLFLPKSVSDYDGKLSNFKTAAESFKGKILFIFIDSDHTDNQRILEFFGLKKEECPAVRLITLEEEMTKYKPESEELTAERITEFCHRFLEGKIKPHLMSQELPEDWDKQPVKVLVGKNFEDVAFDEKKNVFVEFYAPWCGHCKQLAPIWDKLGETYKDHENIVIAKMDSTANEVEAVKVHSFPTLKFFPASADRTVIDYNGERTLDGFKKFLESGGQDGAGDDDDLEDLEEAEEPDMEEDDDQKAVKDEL

[5] = molecular target: Beta Lactamase (Pseudomonas aeruginosa, UniProt Q932Y6); test: BLA reporter interference, concentration series – BLA reporter cells, FRET fluorescence, artefact control for TLR9-MyD88 binding inhibitor project, dose response (AID 588341); assay type: cell-based;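 note: cell based assay in CHO-K1 cells stably expressing beta-lactamase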
Sequence of Beta Lactamase (Q932Y6 whole entry): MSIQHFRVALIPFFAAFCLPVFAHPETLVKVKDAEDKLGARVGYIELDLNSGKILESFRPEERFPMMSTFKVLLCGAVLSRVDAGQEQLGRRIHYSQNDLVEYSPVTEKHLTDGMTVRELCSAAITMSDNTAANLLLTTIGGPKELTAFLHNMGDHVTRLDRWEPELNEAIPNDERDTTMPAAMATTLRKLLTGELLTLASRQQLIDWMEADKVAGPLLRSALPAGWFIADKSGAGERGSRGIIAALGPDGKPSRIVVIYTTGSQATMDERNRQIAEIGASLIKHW

[6] = Luminescence Cell-Based Dose Retest to Confirm Inhibitors of Cancer Stem Cells. [Related pubchem assays (depositor defined):AID2717, AID2721]; assay type: functional; settings: Homo sapiens
[7] = test system: CHO; test: CHO cell viability loss, potency – luminescence, cytotoxicity control for TLR9-MyD88 binding inhibitor project, dose response (AID 588339); assay type: functional, cell-based, hamster; settings: Cricetulus griseus;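 note: CHO cells stably coexpressing TLR9 and MyD88 fusions from primary screen; compound exposure lasted 48 hours before viability readout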
[8] = Trypanosoma cruzi growth suppression in host cells – NIH3T3 host cells, beta-gal luminescence, confirmation (AID 2044); assay type: functional, cell-based;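 note: intracellular parasites grown in NIH/3T3 mouse fibroblasts as host cells; luminescent beta-galactosidase reporter signal from transgenic T. cruzi replicating inside host cells; inhibitors lower the luminescence signal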
[9] = test system: Streptococcus; test: GAS UMAA2166 growth inhibition – luminescence, BacTiterGlo, counter-screen for streptokinase expression inhibitor project, dose response (AID 1915); assay type: functional, organism-based;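 note: potency for reduction of bacterial viability or growth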
[10] = molecular target: Heat shock protein HSP 90-alpha (Homo sapiens, UniProt P07900); assay type: functional, organism-based
[11] = NIH3T3 cell viability loss – ATP luminescence, mouse fibroblasts, counter-screen, dose response (AID 2010); assay type: functional, cell-based;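 note: cells exposed to compound for about 90 hours before reading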
[12] = test system: Streptococcus sp. 'group A'; test: Streptococcus pyogenes SK(-)GAS viability under kanamycin – luminescence, BacTiterGlo, confirmation, counter-screen for streptokinase expression inhibitor project, dose response (AID 1900); assay type: functional, organism-based
[13] = molecular target: T2, High affinity choline transporter 1 (Homo sapiens, UniProt Q9GZV3); test: human choline transporter blockers, potency – cell-based, 5-point CRC, membrane potential dye, dose response (AID 504840); assay type: functional
T2 sequence (Q9GZV3 whole entry): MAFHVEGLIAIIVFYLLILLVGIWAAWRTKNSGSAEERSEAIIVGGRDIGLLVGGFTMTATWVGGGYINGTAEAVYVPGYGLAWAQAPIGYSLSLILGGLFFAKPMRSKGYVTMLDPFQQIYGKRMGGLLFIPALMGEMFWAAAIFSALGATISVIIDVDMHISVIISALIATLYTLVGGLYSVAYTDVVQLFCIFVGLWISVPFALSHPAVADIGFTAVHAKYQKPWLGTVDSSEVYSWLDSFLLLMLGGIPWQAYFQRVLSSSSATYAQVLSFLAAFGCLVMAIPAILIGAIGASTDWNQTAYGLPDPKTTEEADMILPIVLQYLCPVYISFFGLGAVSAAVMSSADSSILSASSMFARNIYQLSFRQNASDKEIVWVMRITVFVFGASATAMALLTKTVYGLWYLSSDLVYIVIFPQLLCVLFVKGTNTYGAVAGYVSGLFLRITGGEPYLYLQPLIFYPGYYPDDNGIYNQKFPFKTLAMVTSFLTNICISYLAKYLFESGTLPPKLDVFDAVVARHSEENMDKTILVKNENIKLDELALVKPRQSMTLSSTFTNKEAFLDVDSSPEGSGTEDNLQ

[14] = molecular target: T2, High affinity choline transporter 1; test: human choline transporter blockers, potency – cell-based, 10-point CRC, membrane potential dye, dose response (AID 588401); assay type: functional;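 note: membrane potential dye fluorescence of choline-evoked depolarization via CHT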
[15] = molecular target: T3, Galanin receptor type 3 (Homo sapiens, UniProt O60755); test: Fluorescence-based cell-based primary high throughput dose response assay to identify antagonists of the Galanin Receptor 3 (GalR3).; assay type: functional
T3 sequence (O60755 whole entry): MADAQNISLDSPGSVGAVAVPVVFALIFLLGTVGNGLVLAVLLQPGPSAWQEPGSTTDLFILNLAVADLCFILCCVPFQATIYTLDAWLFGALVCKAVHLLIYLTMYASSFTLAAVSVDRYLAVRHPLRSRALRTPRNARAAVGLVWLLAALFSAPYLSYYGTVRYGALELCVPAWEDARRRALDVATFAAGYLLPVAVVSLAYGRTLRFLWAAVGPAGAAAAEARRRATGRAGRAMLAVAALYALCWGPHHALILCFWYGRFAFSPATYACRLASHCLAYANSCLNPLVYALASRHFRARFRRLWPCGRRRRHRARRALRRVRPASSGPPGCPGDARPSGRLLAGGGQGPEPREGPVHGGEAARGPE

[16] = cells; assay type: functional, cell-based; settings: HEK-CNG
[17] = molecular target: Ras and Rab interactor 1/Tyrosine-protein kinase ABL1 (Homo sapiens, UniProt P00519+Q13671); assay type: functional;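 note: biochemical TR-FRET dose-response test measuring inhibition of binding between Rin1 and Abl proteins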
Sequence of Ras and Rab interactor 1/Tyrosine-protein kinase ABL1 (P00519 whole entry): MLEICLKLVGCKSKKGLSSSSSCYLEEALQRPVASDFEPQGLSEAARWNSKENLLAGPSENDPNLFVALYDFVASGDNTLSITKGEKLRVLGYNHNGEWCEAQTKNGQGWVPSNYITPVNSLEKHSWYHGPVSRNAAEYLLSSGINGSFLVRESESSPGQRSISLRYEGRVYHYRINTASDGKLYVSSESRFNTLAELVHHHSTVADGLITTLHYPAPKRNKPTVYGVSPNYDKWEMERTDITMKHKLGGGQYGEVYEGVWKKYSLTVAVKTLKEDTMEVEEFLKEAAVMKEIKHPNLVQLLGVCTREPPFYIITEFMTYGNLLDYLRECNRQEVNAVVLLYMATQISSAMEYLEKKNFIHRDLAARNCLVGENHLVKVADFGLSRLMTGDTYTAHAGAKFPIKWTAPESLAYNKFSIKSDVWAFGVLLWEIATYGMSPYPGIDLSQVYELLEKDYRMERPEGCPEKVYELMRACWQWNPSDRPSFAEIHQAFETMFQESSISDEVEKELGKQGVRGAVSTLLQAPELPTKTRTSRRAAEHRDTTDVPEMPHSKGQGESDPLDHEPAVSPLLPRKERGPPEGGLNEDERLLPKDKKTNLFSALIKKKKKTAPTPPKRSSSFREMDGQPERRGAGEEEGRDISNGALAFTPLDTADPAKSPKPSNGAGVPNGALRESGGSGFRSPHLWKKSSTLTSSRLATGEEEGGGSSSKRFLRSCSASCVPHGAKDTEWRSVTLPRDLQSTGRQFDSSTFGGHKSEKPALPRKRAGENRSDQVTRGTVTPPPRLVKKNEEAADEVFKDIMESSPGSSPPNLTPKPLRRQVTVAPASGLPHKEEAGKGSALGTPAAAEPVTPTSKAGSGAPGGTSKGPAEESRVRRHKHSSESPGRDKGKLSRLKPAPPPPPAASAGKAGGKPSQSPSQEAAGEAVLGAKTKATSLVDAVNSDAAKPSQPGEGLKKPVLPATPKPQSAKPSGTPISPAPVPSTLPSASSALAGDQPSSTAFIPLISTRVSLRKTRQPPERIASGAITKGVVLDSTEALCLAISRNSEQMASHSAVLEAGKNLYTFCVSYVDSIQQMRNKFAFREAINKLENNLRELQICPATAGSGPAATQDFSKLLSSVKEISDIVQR
Sequence of Ras and Rab interactor 1/Tyrosine-protein kinase ABL1 (Q13671 whole entry): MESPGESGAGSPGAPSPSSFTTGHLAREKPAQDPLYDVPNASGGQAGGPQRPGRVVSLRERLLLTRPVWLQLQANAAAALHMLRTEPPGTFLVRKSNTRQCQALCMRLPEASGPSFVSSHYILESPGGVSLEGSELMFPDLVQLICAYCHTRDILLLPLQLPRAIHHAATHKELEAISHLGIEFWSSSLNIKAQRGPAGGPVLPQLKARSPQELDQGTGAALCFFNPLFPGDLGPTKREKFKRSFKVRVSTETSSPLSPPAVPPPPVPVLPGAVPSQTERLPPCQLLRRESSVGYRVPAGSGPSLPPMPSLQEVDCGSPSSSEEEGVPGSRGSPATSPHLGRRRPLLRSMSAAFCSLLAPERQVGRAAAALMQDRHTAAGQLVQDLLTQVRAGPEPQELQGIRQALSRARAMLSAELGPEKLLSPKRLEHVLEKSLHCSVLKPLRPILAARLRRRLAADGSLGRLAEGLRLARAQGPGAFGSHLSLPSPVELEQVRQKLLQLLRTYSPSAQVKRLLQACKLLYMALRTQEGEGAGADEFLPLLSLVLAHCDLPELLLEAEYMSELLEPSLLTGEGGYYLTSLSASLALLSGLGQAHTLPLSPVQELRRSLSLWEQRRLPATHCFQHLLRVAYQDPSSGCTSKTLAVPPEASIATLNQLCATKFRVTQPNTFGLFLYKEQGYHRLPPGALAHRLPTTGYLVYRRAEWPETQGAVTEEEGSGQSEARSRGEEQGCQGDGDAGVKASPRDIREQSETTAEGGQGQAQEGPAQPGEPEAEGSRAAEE

[18] = molecular target: T4, Neuropeptides B/W receptor type 1 (Homo sapiens, UniProt P48145); test: human NPBW1 receptor blockade, IC50 – cell-based, fluorescence, dose response, set 5, late-stage follow-up (AID 588566); assay type: functional
T4 sequence (P48145 whole entry): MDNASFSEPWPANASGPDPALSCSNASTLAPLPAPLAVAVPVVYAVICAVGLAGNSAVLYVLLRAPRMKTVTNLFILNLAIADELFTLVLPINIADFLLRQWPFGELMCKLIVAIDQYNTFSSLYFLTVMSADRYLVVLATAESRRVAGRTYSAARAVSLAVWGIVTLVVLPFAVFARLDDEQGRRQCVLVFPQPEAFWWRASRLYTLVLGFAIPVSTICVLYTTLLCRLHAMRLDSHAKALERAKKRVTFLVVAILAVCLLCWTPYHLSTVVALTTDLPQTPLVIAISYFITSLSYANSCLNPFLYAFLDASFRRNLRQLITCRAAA

[19] = molecular target: Melanin-concentrating hormone receptor 1 (Homo sapiens, UniProt Q99705); test: Late-stage fluorescence-based counterscreen for antagonists of the G-protein coupled receptor 7 (GPR7): cell-based dose response assay to identify antagonists of the melanin-concentrating hormone receptor 1 (MCHR1) Set 5.; assay type: functional
Sequence of Melanin-concentrating hormone receptor 1 (Q99705 whole entry): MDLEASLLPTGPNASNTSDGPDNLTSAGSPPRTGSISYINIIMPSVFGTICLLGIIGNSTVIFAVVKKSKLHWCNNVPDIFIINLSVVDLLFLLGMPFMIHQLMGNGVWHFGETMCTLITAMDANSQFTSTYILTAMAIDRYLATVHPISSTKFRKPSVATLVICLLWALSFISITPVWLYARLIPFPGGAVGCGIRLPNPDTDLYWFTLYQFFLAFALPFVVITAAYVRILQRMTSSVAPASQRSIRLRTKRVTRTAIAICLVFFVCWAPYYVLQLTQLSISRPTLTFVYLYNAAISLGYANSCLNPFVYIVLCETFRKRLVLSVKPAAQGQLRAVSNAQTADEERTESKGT

[20] = molecular target: T5, Apoptotic protease-activating factor 1 (Homo sapiens, UniProt O14727); test: SAR analysis of small molecule Activators of Apaf-1 in a Fluorescent assay.; assay type: functional; settings: read-out: EC50_Mean;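 note: caspase-3 cleavage of fluorogenic Rh110 DEVD substrate downstream of apoptosome activation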
T5 sequence (O14727 whole entry): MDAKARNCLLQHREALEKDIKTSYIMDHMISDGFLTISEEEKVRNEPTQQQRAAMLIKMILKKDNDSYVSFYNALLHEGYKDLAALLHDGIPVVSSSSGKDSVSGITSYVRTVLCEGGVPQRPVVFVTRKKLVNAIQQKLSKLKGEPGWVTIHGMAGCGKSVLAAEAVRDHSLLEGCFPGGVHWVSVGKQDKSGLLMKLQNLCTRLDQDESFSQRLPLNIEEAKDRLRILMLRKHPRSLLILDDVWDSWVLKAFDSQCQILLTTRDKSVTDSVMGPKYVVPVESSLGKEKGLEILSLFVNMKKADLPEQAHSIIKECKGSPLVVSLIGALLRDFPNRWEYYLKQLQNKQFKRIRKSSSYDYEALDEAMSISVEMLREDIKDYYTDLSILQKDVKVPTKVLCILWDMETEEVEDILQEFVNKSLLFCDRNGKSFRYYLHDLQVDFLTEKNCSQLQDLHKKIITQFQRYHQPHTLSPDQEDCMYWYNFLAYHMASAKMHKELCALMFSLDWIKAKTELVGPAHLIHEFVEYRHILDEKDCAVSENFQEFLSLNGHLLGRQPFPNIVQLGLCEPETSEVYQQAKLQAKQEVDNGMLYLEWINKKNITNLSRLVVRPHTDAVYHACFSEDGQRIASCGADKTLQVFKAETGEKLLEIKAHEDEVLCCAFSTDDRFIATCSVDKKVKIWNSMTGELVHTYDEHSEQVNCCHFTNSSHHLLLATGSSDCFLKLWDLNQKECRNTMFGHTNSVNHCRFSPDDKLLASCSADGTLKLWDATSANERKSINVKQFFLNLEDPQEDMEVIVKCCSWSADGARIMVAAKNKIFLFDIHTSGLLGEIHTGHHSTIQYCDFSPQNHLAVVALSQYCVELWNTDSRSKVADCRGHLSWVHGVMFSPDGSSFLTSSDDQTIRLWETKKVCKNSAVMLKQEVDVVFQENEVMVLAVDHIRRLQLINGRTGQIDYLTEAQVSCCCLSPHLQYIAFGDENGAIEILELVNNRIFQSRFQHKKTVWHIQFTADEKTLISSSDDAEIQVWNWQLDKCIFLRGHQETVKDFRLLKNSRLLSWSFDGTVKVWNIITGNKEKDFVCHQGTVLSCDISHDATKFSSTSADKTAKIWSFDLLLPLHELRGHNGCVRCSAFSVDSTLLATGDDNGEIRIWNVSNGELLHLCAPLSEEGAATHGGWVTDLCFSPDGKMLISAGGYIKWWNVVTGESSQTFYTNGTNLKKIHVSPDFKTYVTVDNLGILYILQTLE

## COc1ccc2c(Cl)c(-c3nnc4n3CCCCC4)sc2c1
[1]
  EC50: 1.88 µM (active)
[2]
  IC50: > 99 µM (inactive)
[3]
  IC50: > 99 µM (inactive)

## Cc1cccn2c(CN(C)C3CCCc4ccccc43)c(C(=O)N3CCOCC3)nc12 (stereo unspecified)
[4]
  AC50: 19.5 µM (active)

## O=[N+]([O-])c1ccc(N2N=C(c3ccccc3)CC2c2ccccc2O)cc1 (stereo unspecified)
[5]
  IC50: 4.58 µM (active)
[6]
  AC50: 2.65 µM (active)
[7]
  IC50: 28.5 µM (inactive)
[8]
  EC50: 1.45 µM (active)
[9]
  EC50: 3.46 µM (active)
[10]
  AC50: 3.31 µM (active)
[11]
  EC50: > 60 µM (not active)
[12]
  EC50: 2.31 µM (active)

## COc1ccc(C2=NN(c3nc(C(=O)O)cs3)C(O)(C(F)(F)F)C2)c(OC)c1 (stereo unspecified)
[13]
  IC50: 7.18 µM (active)
[14]
  IC50: 4.74 µM (active)
[15]
  IC50: 10 µM (inactive)
[16]
  EC50: > 29.9 µM (inactive)

## CC(OC(=O)c1ccccc1NCCO)C(=O)Nc1ccnn1C(C)C (stereo unspecified)
[17]
  IC50: 3.98 µM (active)

## Cc1cc(C)c(NC(=O)c2ccc[n+](Cc3ccc([N+](=O)[O-])cc3)c2)c(C)c1
[13]
  IC50: 3.67 µM (active)
[14]
  IC50: 1.5 µM (active)

## Cc1nc(Cc2nnc(SCC(=O)c3cc(C)n(Cc4ccccc4)c3C)o2)cs1
[2]
  IC50: > 99 µM (inactive)
[3]
  IC50: > 99 µM (inactive)

## COc1cccc(Oc2c(Cl)cnn(C3c4ccccc4-c4ccccc43)c2=O)c1
[18]
  IC50: 9.69 µM (active)
[19]
  IC50: > 20 µM (inactive)

## O=C(O)CC(CCc1ccccc1)NC(=O)c1ccco1 (stereo unspecified)
[20]
  EC50: > 100 µM (inactive)

## O=C(C1CCCCN1Cc1c2ccccc2cc2ccccc12)N1CCN(c2ccc([N+](=O)[O-])cc2)CC1 (stereo unspecified)
[18]
  IC50: > 20 µM (inactive)
[19]
  IC50: > 20 µM (inactive)
